Reference: patent US11197856B2, “Bicyclic compounds and methods for their use in treating autism” (priority 2013, dated 2021)

What was measured:
Akt = experiment: Phosphorylated AKT by Western blot; type: in vivo, mice; conditions: full brain lysates; fmr1-knockout animals; normalized to GAPDH
Experimental: Phosphorylation levels of ERK1/2 and Akt of full brain lysates were evaluated using Western blots. The mice were sacrificed and the brains removed 12 days after the last injection, and immediately after the last behavioral test. Other studies measured pERK and pAkt in blood lymphocytes. The results of Western analysis were normalized to the amount of GAPDH protein seen in each blot.

cerebellar explants = experiment: Cerebellar explants, glutamate/3-nitropropionic acid neurotoxicity; type: cell-based, Wistar rats
Experimental: Cover slips were placed into a large Petri dish and washed in 70% alcohol for 5 minutes, then washed with Millipore H2O. The cover slips were air dried, and coated with Poly-D-Lysine (1 mg/ml stock solution in PBS, 90-100 μl) for 2 hours at 34° C.
Postnatal day 8 Wistar rats were used for the study. The rats were sacrificed and placed in ice for 1 minute, decapitated and the cerebellum removed and placed on ice. Cerebellum tissue was placed in 1 ml of 0.65% glucose-supplemented PBS (10 μl 65% stock D (+)glucose/1 ml PBS) in a large Petri dish, chopped up into smaller sections and triturated with a 1 ml insulin syringe via a 23 G (0.4 mm) needle, and then squirted back into the glucose solution in the large Petri dish. The tissue was sieved through (125 μm pore size gauze) and centrifuged (2 minutes at 60 g) twice to exchange the medium into serum-free BSA-supplemented START V medium (Biochrom, Germany). The second centrifugation step was done with 1 ml of START V medium. The microexplants were reconstituted into 500 μl of START V medium and put on ice.
Two hours after PDL-coating, the slides were washed with Millipore H2O and air dried. Each slide was placed into a small Petri dish (diameter: 35 mm) and 40 μl of START V/cell suspension was added. The tissue was incubated for 2 hours at 34° C. (settlement period). START V-medium (1 ml) was then added to the Petri dish and cultivated at 34° C. in the presence of 5% CO2 in air at 100% humidity for 48 hours.
For the study, certain explant cultures were exposed to vehicle (PBS) only. In the first study (Study 1) 10 μl of toxin 1 (L-glutamate—100 mM in Millipore water; final concentration; 1 mM) and 10 μl of toxin 2 (3-nitropropionic acid—50 mM—pH 7—in Millipore water, final concentration: 0.5 mM) was applied simultaneously with the drug to be tested ([…]). In each case, the drugs were left in contact with the explants for the duration of the study.
After explants were exposed to drugs for the study period, cells were then rinsed in PBS and then fixed in increasing concentrations of paraformaldehyde (500 μl of 0.4% PFA was applied; then 1.2% PFA; then 3% PFA and finally 4% PFA (each fixation step: 2-3 minutes). Finally, the microexplants were rinsed in PBS.
Neurons in the explants were then evaluated for morphology (presence of neurites) and counted as live cells per microscopic field. Four fields displaying highest cell density were counted per cover slip and the data presented as mean±standard error of the mean (SEM); n=4 each. Statistical significance was evaluated by using the non-paired Student's t-test.

hippocampal CA1 neurons = experiment: Dendritic arborization, dendritic and spine length after Golgi staining, mecp2 knockout mice; type: in vivo
Experimental: We assess the effects of cG-2-AllylP treatment on dendrites. Transgenic mecp2 knockout mice (n=15 to 20) are administered cG-2-AllylP intraperitoneally at a dose of 20 mg/kg once daily. Following sacrifice dendritic spine density, spine length and aborization are examined after Golgi staining after nine weeks, according to Table 5 below.
Dendritic length is assessed by distance from the soma of representative hippocampal CA1 neurons from 9 week old male mecp2 null mutant mice treated with either saline (3 neurons analysed from 3 separate mice, n=9) or cG-2-AllylP (20 mg/kg i.p. 1/day, from week 4; 3 neurons are analysed from 3 separate mice, n=9).

layer 5 cortical neurons = experiment: Intracellular whole-cell recordings of spontaneous EPSCs in acute brain slices; type: in vivo, mice; conditions: MeCP2-/y animals; 20 mg/kg daily; vs vehicle
[1] = tested on: fmr1-knockout mice and wild-type mice; experiment: Elevated Plus Maze; type: in vivo
Excerpt: In another study, we used an “Elevated Plus Maze.” The Elevated Plus Maze test is one of the most widely used tests for measuring anxiety-like hyperactivity in mice. The test is based on the natural aversion of mice for open and elevated areas, as well as on their natural spontaneous exploratory behavior in novel environments. FIG. 23 depicts a photograph of a device used in this study. The apparatus consists of two open arms and two closed arms, crossed in the middle perpendicularly to each other, and a center area. The open arms are more exposed and therefore create more anxiety in the mice. Mice therefore spend more time in the closed arms and visit them more frequently. Mice were given access to all of the arms and were allowed to move freely between them. The number of entries into the open arms, the time spent in the open arms, and time spent in the center were used as indices of open space-induced anxiety.

[2] = tested on: heterozygous Shank3-deficient mice; experiment: Shank3-deficient mice: male-female social interactions and ultrasonic vocalizations; type: in vivo; conditions: Shank3-deficient groups; 15 or 60 mg/kg oral b.i.d 14 days; vs placebo
Experimental: 1 to 3 month old wild-type and heterozygous Shank3-deficient mice are divided into 4 treatment groups: placebo treated wild-type, placebo treated Shank3-deficient group and two Shank3-deficient cG-2-AllylP treated groups. The animals are given placebo (water) or cG-2-AllylP formulated in water administered orally, b.i.d for 14 days. cG-2-AllylP is administered at two doses: 15 or 60 mg/kg.
Behavioral assessments are made at several time points, and include analysis of social interactions and ultrasonic social communication, in line with the methodology described by Bozdagi et al. Briefly, male-female social interactions in each treatment group are evaluated. The subject males are group-housed and individually tested in clean cages with clean litter. Each testing session lasts 5 min. […] Videos from the male subjects are subsequently scored by an investigator uninformed of the subject's genotype and treatment group on measures of nose-to-nose sniffing, nose-to-anogenital sniffing and sniffing of other body regions, using Noldus Observer software (Noldus Information Technology, Leesburg, Va., USA). Ultrasonic vocalizations are identified manually by two highly trained investigators blinded to genotype/treatment group information, and summary statistics are calculated using the Avisoft package. […] Data are analysed using an unpaired Student's t-test.

C=CC[C@]12CCCN1C(=O)CNC2=O [cG-2-AllylP, (8aS)-Allyl-hexahydropyrrolo[1,2-a]pyrazine-1,4-dione]
phosphorylated AKT (Akt): about 0.9 UA units | numbers of cells having neurites (cerebellar explants; administered simultaneously with glutamate): significantly increased the numbers of cells having neurites in a dose-dependent manner | glutamate-induced neurotoxicity (cerebellar explants; low doses (cG-2-AllylP: 100 pm to 10 nm)): significant decrease in glutamate-induced neurotoxicity | dendritic length by distance from the soma (hippocampal CA1 neurons; hippocampal CA1 neurons, vs saline): produces longer dendrites over much of the range of distances from the somas | dendritic arborization and dendritic spine length (hippocampal CA1 neurons; mecp2 knockout mice, 20 mg/kg i.p. once daily, nine weeks): improves dendritic arborization and increases dendritic spine length | EPSC amplitude (layer 5 cortical neurons): significantly larger in amplitude | time spent in the closed arm ([1]; fmr1-knockout animals): normalized the time spent in the closed arm | time spent in the open arms ([1]; fmr1-knockout animals): normalized the time spend in the open arms | time spent in the center ([1]; fmr1-knockout mice, p<0.001): significantly less time than vehicle-treated fmr1-knockout animals | time spent in the center ([1]; wild-type mice): slightly less time in the center than did vehicle-treated wild-type animals | time spent in the closed arm ([1]; wild-type mice): about the same amount of time in the closed arm | cumulative duration of total social sniffing [2]: significant increase in the cumulative duration of total social sniffing | number of ultrasonic vocalizations [2]: increased number of ultrasonic vocalizations
